Source: ChEMBL document CHEMBL5241120, “Insights into the medicinal chemistry of heterocycles integrated with a pyrazolo[1,5-a]pyrimidine scaffold” (RSC Med Chem, 2022)
pIC50: −log10 of the molar value. In brackets after ≈: the same amount, converted by molar mass.

Tests used:
Bacillus subtilis = experiment: Antibacterial activity against Bacillus subtilis assessed as zone of inhibition; type: functional
Escherichia coli = experiment: Antibacterial activity against Escherichia coli assessed as zone of inhibition; type: functional
HepG2 = experiment: Cytotoxicity against human HepG2 cells by MTT assay; type: functional, cell-based
HCT-116 = experiment: Cytotoxicity against human HCT-116 cells by MTT assay; type: functional, cell-based
MCF7 = experiment: Cytotoxicity against human MCF7 cells by MTT assay; type: functional, cell-based
SiHa = experiment: Cytotoxicity against human SiHa cells by MTT assay; type: functional, cell-based
HeLa = experiment: Cytotoxicity against human HeLa cells by MTT assay; type: functional, cell-based
Pseudomonas aeruginosa = experiment: Antibacterial activity against Pseudomonas aeruginosa assessed as zone of inhibition; type: functional
[1] = system: Panel NCI-60 (60 carcinoma cell lines); experiment: Cytotoxicity against human Panel NCI-60 (60 carcinoma cell lines); type: functional; design: concentration or dose not given beside the values
Staphylococcus aureus = experiment: Antibacterial activity against Staphylococcus aureus assessed as zone of inhibition; type: functional

## Cc1cc(-n2ncc3c(=O)n(-c4ccccc4)cnc32)n2ncc(C#N)c2n1
Bacillus subtilis
  inhibition zone (IZ): 14.3 mm
Escherichia coli
  inhibition zone (IZ): 13.1 mm

## CC1=CC(c2ccccc2)n2nc(C)cc2N1 (stereo not given)
HepG2
  IC50: 24.8 µg/mL
HCT-116
  IC50: 22.6 µg/mL (≈ 100 µM)
MCF7
  IC50: 23.5 µg/mL

## COc1cc(CNc2ccccc2C(=O)N2CCN(C(=O)c3cc(-c4cc(OC)c(OC)c(OC)c4)n4nc(-c5ccccc5)cc4n3)CC2)cc(OC)c1OC
SiHa
  pIC50: 5.72
HeLa
  pIC50: 5.82

## NC(=O)c1c(Nc2ccc(Br)cc2)nn2c3c(cnc12)CCCCCC3
Bacillus subtilis
  inhibition zone (IZ): 9 mm
Pseudomonas aeruginosa
  inhibition zone (IZ): 9 mm

## COc1ccc(Nc2nn3c(O)cc(-c4ccccc4)nc3c2C(N)=O)c(OC)c1
[1]
  Activity: 0.5%

## COc1ccc(Nc2nn3c(C)cc(C)nc3c2C(=O)Nc2ccc(C)cc2)c(OC)c1
[1]
  Activity: 0.5%

## COc1ccc(Nc2nn3c4c(cnc3c2C(=O)Nc2ccc(Cl)cc2)C(=O)CC(C)(C)C4)cc1
HepG2
  pIC50: 4.14

## COc1ccc(-c2cc(C(=O)N3CCN(C(=O)c4ccccc4NCc4cccs4)CC3)nc3cc(-c4ccccc4)nn23)cc1OC
SiHa
  pIC50: 5.74
HeLa
  pIC50: 5.70

## NC(=O)c1c(Nc2ccccc2)nn2c(-c3ccc(Br)cc3)ccnc12
HepG2
  pIC50: 4.12
Bacillus subtilis
  inhibition zone (IZ): 9 mm
MCF7
  pIC50: 4.19

## N#Cc1c(-c2ccccc2)nc2c(/N=N/c3cccc(C(F)(F)F)c3)c(N)nn2c1O
HepG2
  IC50: 2.41 µg/mL
HCT-116
  IC50: 2.39 µg/mL (≈ 5.65 µM)
MCF7
  IC50: 2.09 µg/mL

## COc1ccc(-c2cc(C(=O)N3CCN(C(=O)c4ccccc4NCc4ccco4)CC3)nc3cc(-c4ccccc4)nn23)cc1
HeLa
  pIC50: 5.76

## NC(=O)c1c(Nc2ccc(Br)cc2)nn2c(-c3ccc(Br)cc3)ccnc12
Bacillus subtilis
  inhibition zone (IZ): 9 mm
Pseudomonas aeruginosa
  inhibition zone (IZ): 9 mm
Staphylococcus aureus
  inhibition zone (IZ): 9 mm
Escherichia coli
  inhibition zone (IZ): 9 mm

## O=C(Nc1ccccc1-c1ccnc2c(C(=O)NCc3ccc(F)cc3)cnn12)c1c(Cl)cc(Cl)cc1Cl
HeLa
  pIC50: 5.06

## COc1ccc(Nc2nn3c(-c4cccs4)ccnc3c2C(N)=O)cc1
HepG2
  pIC50: 4.14

## CC1=CC(c2ccccc2)n2nc(-c3ccc(C)cc3)cc2N1 (stereo not given)
HepG2
  IC50: 10.3 µg/mL
HCT-116
  IC50: 22.5 µg/mL (≈ 74.7 µM)
MCF7
  IC50: 23.8 µg/mL

## CCNc1nn2c(-c3ccc(Br)cc3)ccnc2c1C(N)=O
Staphylococcus aureus
  inhibition zone (IZ): 9 mm

## COc1ccc(NC(=O)c2c(Nc3ccc(OC)cc3OC)nn3c(O)cc(-c4ccccc4)nc23)c(OC)c1
[1]
  Activity: 0.5%

## COc1ccc(Nc2nn3c(-c4ccc(Br)cc4)ccnc3c2C(N)=O)cc1
HepG2
  pIC50: 4.15
MCF7
  pIC50: 4.19

## O=C(c1cc(-c2ccccc2)n2nc(-c3ccccc3)cc2n1)N1CCN(C(=O)c2ccccc2NCc2cccc3c2OCO3)CC1
HeLa
  pIC50: 5.71

## O=C(Nc1ccccc1)c1cnn2c(-c3ccc([N+](=O)[O-])cc3)ccnc12
Escherichia coli
  inhibition zone (IZ): 11 mm

## COc1cc(CNc2ccccc2C(=O)N2CCN(C(=O)c3cc(-c4ccc(C)cc4)n4nc(-c5ccccc5)cc4n3)CC2)cc(OC)c1OC
HeLa
  pIC50: 5.74

## Nc1nn2c(-c3ccc(S(=O)(=O)c4ccccc4)cc3)ccnc2c1/N=N/c1ccccc1
Bacillus subtilis
  inhibition zone (IZ): 26.5 mm

## O=C(Nc1ccccc1-c1ccnc2c(C(=O)NCc3ccc(F)cc3)cnn12)c1ccc(Cl)c(Cl)c1
HeLa
  pIC50: 5.02

## CC1(C)CC(=O)c2cnc3c(C(N)=O)c(Nc4ccccc4)nn3c2C1
HepG2
  pIC50: 4.11
MCF7
  pIC50: 4.18

## COc1ccc(-c2ccnc3c(C(=O)Nc4ccccc4)cnn23)cc1
Escherichia coli
  inhibition zone (IZ): 10 mm

## COc1ccc(-c2cc(-c3nn4cc(-c5ccncc5)cnc4c3S(=O)(=O)c3cc(OC)cc(OC)c3)on2)cc1
SiHa
  pIC50: 6.00

## COc1ccc(-c2cc(C(=O)N3CCN(C(=O)c4ccccc4NCc4ccco4)CC3)nc3cc(-c4ccccc4)nn23)cc1OC
HeLa
  pIC50: 5.81

## COc1ccc(Nc2nn3c(N)c(C#N)c(-c4cc(OC)ccc4OC)nc3c2C(=O)Nc2ccc(Cl)cc2)cc1
Bacillus subtilis
  inhibition zone (IZ): 21 mm
Escherichia coli
  inhibition zone (IZ): 16 mm

## O=C(Nc1ccccc1-c1ccnc2c(C(=O)NCc3ccccc3Cl)cnn12)c1ccc(Cl)c(Cl)c1
HeLa
  pIC50: 5.04

## COc1cc(-c2cc(C(=O)N3CCN(C(=O)c4ccccc4NCc4cccc5c4OCO5)CC3)nc3cc(-c4ccccc4)nn23)cc(OC)c1OC
HeLa
  pIC50: 5.75

## COc1ccc(Nc2nn3c(C)cc(C)nc3c2C(=O)Nc2ccccc2)c(OC)c1
[1]
  Activity: 0.5%

## CCOC(=O)c1cnc2c(C(=O)Nc3ccccc3)cnn2c1C
Escherichia coli
  inhibition zone (IZ): 10 mm

## NC(=O)c1c(Nc2ccc(Cl)cc2)nn2c(-c3ccccc3)ccnc12
HepG2
  pIC50: 4.14

## COC(=O)c1cnc2c(C(=O)Nc3ccccc3)cnn2c1C
Staphylococcus aureus
  inhibition zone (IZ): 19 mm

## O=C(c1cc(-c2ccc([N+](=O)[O-])cc2)n2nc(-c3ccccc3)cc2n1)N1CCN(C(=O)c2ccccc2NCc2cccc3c2OCO3)CC1
SiHa
  pIC50: 5.70
HeLa
  pIC50: 5.70

## COc1cc(-c2cc(C(=O)N3CCN(C(=O)c4ccccc4NCc4cccs4)CC3)nc3cc(-c4ccccc4)nn23)cc(OC)c1OC
SiHa
  pIC50: 5.81
HeLa
  pIC50: 5.84

## COc1ccc(Nc2nn3c(O)cc(C)nc3c2C(=O)Nc2ccccc2)c(OC)c1
[1]
  Activity: 0.5%

## O=C(Nc1ccccc1)c1cnn2c(-c3ccc(Cl)cc3)ccnc12
Staphylococcus aureus
  inhibition zone (IZ): 17 mm
Escherichia coli
  inhibition zone (IZ): 10 mm

## COc1ccc(-c2cc(C(=O)N3CCN(C(=O)c4ccccc4NCc4cccc5c4OCO5)CC3)nc3cc(-c4ccccc4)nn23)cc1
HeLa
  pIC50: 5.71

## COc1ccc(Nc2nn3c(O)cc(-c4ccccc4)nc3c2C(=O)Nc2ccc(C)cc2)c(OC)c1
[1]
  Activity: 0.5%

## COc1ccc(-c2cc(-c3nn4cc(-c5ccncc5)cnc4c3S(=O)(=O)c3ccc(OC)cc3)on2)cc1
SiHa
  pIC50: 5.75

## COc1ccc(Nc2nn3c(O)cc(-c4ccccc4)nc3c2C(=O)Nc2ccccc2)c(OC)c1
[1]
  Activity: 0.5%

## NC(=O)c1c(Nc2ccc(Cl)cc2)nn2c(-c3ccc(Cl)cc3)ccnc12
HepG2
  pIC50: 4.14

## NC(=O)c1c(Nc2ccc(Br)cc2)nn2c(-c3ccccc3)ccnc12
Bacillus subtilis
  inhibition zone (IZ): 9 mm
Pseudomonas aeruginosa
  inhibition zone (IZ): 9 mm
Escherichia coli
  inhibition zone (IZ): 9 mm

## COc1cccc2c1C(=O)c1c(O)c3c(c(O)c1C2=O)C[C@@](O)(C(=O)CO)C[C@@H]3O[C@H]1C[C@H](N)[C@H](O)[C@H](C)O1 [DOXORUBICIN]
HepG2
  pIC50: 4.09
HCT-116
  IC50: 1.6 µg/mL (≈ 2.94 µM)

## COc1ccc(Nc2nn3c(O)cc(C)nc3c2C(=O)Nc2ccc(C)cc2)c(OC)c1
[1]
  Activity: 0.5%

## O=C(Nc1ccccc1)c1cnn2c(-c3ccccc3)ccnc12
Staphylococcus aureus
  inhibition zone (IZ): 10 mm
Escherichia coli
  inhibition zone (IZ): 10 mm

## NC(=O)c1c(Nc2ccccc2)nn2c(-c3ccc(Cl)cc3)ccnc12
HepG2
  pIC50: 4.06
Bacillus subtilis
  inhibition zone (IZ): 9 mm
Pseudomonas aeruginosa
  inhibition zone (IZ): 9 mm
MCF7
  pIC50: 4.20

## NC(=O)c1c(Nc2ccc(Br)cc2)nn2c3c(cnc12)CCC3
Bacillus subtilis
  inhibition zone (IZ): 12 mm
Pseudomonas aeruginosa
  inhibition zone (IZ): 9 mm
Escherichia coli
  inhibition zone (IZ): 11 mm

## COc1ccc(Nc2nn3c(-c4ccccc4)cc(-c4ccccc4)nc3c2C(=O)Nc2ccccc2)c(OC)c1
[1]
  Activity: 0.5%

## COc1ccc(Nc2nn3c(C)cc(C)nc3c2C(N)=O)c(OC)c1
[1]
  Activity: 0.5%

## COc1ccc(Nc2nn3c(-c4ccccc4)cc(-c4ccccc4)nc3c2C(=O)Nc2ccc(C)cc2)c(OC)c1
[1]
  Activity: 0.5%

## COc1ccc(-c2cc(-c3nn4cc(-c5ccncc5)cnc4c3S(=O)(=O)c3ccc([N+](=O)[O-])cc3)on2)cc1
SiHa
  pIC50: 5.68

## COc1ccc(-c2ccnc3c(C(N)=O)c(Nc4ccc(Cl)cc4)nn23)cc1
HepG2
  pIC50: 4.14

## NC(=O)c1c(Nc2ccccc2)nn2c(-c3ccc(O)cc3)ccnc12
Bacillus subtilis
  inhibition zone (IZ): 9 mm
Pseudomonas aeruginosa
  inhibition zone (IZ): 9 mm
Staphylococcus aureus
  inhibition zone (IZ): 9 mm
Escherichia coli
  inhibition zone (IZ): 9 mm

## CC[C@H](CO)Nc1nc(NCc2ccccc2)c2ncn(C(C)C)c2n1 [SELICICLIB]
SiHa
  pIC50: 5.57
HeLa
  pIC50: 5.66

## NC(=O)c1c(Nc2ccccc2)nn2c3c(cnc12)CCC3
Bacillus subtilis
  inhibition zone (IZ): 9 mm
Pseudomonas aeruginosa
  inhibition zone (IZ): 9 mm

## COc1cc(-c2cc(C(=O)N3CCN(C(=O)c4ccccc4NCc4ccco4)CC3)nc3cc(-c4ccccc4)nn23)cc(OC)c1OC
SiHa
  pIC50: 5.79
HeLa
  pIC50: 5.81

## CNc1nn2c(-c3ccccc3)ccnc2c1C(N)=O
Bacillus subtilis
  inhibition zone (IZ): 9 mm
Pseudomonas aeruginosa
  inhibition zone (IZ): 9 mm

## NC(=O)c1c(Nc2ccc(Cl)cc2)nn2c(-c3ccc(F)cc3)ccnc12
HepG2
  pIC50: 4.14

## COc1ccc(NC(=O)c2c(Nc3ccc(OC)cc3OC)nn3c(C)cc(C)nc23)c(OC)c1
[1]
  Activity: 0.5%

## COc1ccc(Nc2nn3c(O)cc(C)nc3c2C(N)=O)c(OC)c1
[1]
  Activity: 0.5%

## Cc1ccc(Nc2nn3c(-c4ccc(Cl)cc4)ccnc3c2C(N)=O)cc1
HepG2
  pIC50: 4.14

## NC(=O)c1c(Nc2ccc(Cl)cc2)nn2c(-c3ccc(Br)cc3)ccnc12
HepG2
  pIC50: 4.14

## NC(=O)c1c(Nc2ccc(Br)cc2)nn2c3c(cnc12)CCCC3
Bacillus subtilis
  inhibition zone (IZ): 9 mm
Pseudomonas aeruginosa
  inhibition zone (IZ): 9 mm

## NC(=O)c1c(Nc2ccccc2)nn2c(-c3ccc(F)cc3)ccnc12
HepG2
  pIC50: 4.14

## CCOC(=O)c1cnn(-c2cc(C)nc3c(C#N)cnn23)c1N
Bacillus subtilis
  inhibition zone (IZ): 17.1 mm
Escherichia coli
  inhibition zone (IZ): 15.4 mm

## NC(=O)c1c(Nc2ccc(Br)cc2)nn2c(-c3ccc(Cl)cc3)ccnc12
Staphylococcus aureus
  inhibition zone (IZ): 9 mm

## Nc1nc2c(/N=N/c3ccc(C(F)(F)F)cc3)c(N)nn2c(N)c1/N=N/c1nccs1
HepG2
  IC50: 4.1 µg/mL

## O=C(c1cc(-c2ccccc2)n2nc(-c3ccccc3)cc2n1)N1CCN(C(=O)c2ccccc2NCc2ccco2)CC1
SiHa
  pIC50: 5.71

## COc1ccc(Nc2nn3c(N)c(C#N)c(-c4cccc(C)c4)nc3c2C(=O)Nc2ccccc2)cc1
Bacillus subtilis
  inhibition zone (IZ): 20 mm
Escherichia coli
  inhibition zone (IZ): 16 mm

## Cc1ccc(Nc2nn3c(-c4ccc(Br)cc4)ccnc3c2C(N)=O)cc1
HepG2
  pIC50: 4.14

## COc1ccc(NC(=O)c2c(Nc3ccc(OC)cc3OC)nn3c(-c4ccccc4)cc(-c4ccccc4)nc23)c(OC)c1
[1]
  Activity: 0.5%

## COc1ccc(-c2cc(C(=O)N3CCN(C(=O)c4ccccc4NCc4cc(OC)c(OC)c(OC)c4)CC3)nc3cc(-c4ccccc4)nn23)cc1
HeLa
  pIC50: 5.72

## COc1ccc(NC(=O)c2c(Nc3ccc(OC)cc3OC)nn3c(O)cc(C)nc23)c(OC)c1
[1]
  Activity: 0.5%
